This note sets out measurements from patent US20170208848A1, “PROCESS FOR MANUFACTURING AN IRON FORTIFIED FOOD PRODUCT” (NESTEC S.A., priority 2014, published 2017).

The nature of the data set: Browning of the sprayed regions of the edible material with polysaccharide in the liquid composition. It is filed as physicochemical. To be noted: polysaccharide included in the liquid composition. From the text: The polysaccharide comprised in the liquid composition of the process of the invention may be selected from the group consisting of maltodextrin, acacia gum, agar-agar, carrageenan, tragacanth, locust bean gum, guar gum, xanthan gum and combinations of these. […] The polysaccharide may be carrageenan or acacia gum.

Regarding Carrageenan, the “browning of the sprayed regions of the edible material” value is on record as “particularly effective at preventing or delaying browning”.
As for acacia gum, the “browning of the sprayed regions of the edible material” value was “particularly effective at preventing or delaying browning”.
